Test system: M1 (rhabdomyosarcoma)
Test: M1 tumor response after PDT (verteporfin 1.0 mg/kg i.v. + light) with or without intratumoral DETOX B-SE
Format: in vivo, mice
Experimental: DETOX™ B-SE (Stable Emulsion) (LOT # PD: 071899-575-114) is a 1.0% squalene oil-in-water emulsion containing 145 μg/mL cell wall skeleton (CWS) from Mycobacterium phlei and 25 μg/mL monophosphoryl lipid A (MPL) from Salmonella minnesota R595 [Corixa Inc.]. DETOX™ B-SE was prepared according to the manufacturer's recommendations. Two concentrations were prepared by diluting DETOX™ B-SE in sterile PBS: 1:10 (7.25 μg/mL CWS, 1.25 μg/mL MPL) or 1:2.5 (29.0 μg/mL CWS, 5.0 μg/mL MPL). Aliquots (50 μL) were drawn into a tuberculin syringe with a 27 gauge needle prior to intratumoral injection.
Mice used in the experiments described below were implanted intradermally with a suspension of 2×10^4 M1 (rhabdomyosarcoma) cells on the right flank. Approximately six to ten days after implantation, the site was shaved and tumor growth measured using vernier calipers. Only mice bearing tumors 4-6 mm in diameter were selected for use.
Mice treated with PDT or PDV received 1.0 mg/kg of Verteporfin for Injection (VFI) administered intravenously by tail vein injection. Immediately after injection, the mice were placed in a darkened row of an enclosed, ventilated animal rack (condo unit) for 30 minutes. After 30 minutes, each mouse was secured in a metal holder so that the tumor was centered in a 1.0 cm diameter exposure area. The tumor site was exposed to light from an argon pump dye laser for either 14 minutes, to deliver 75 J/cm^2, or 4 minutes and 40 seconds, to deliver 25 J/cm^2. The light doses selected were chosen to deliver either a high PDT dose (75 J/cm^2) or a low PDT dose (25 J/cm 2). The exposure time in seconds was determined by dividing the light dose (J/cm^2) by light Intensity (W/cm^2).
Immediately following illumination and while still immobilized in the metal holder, mice received a single intratumoral injection of 50 μL of the 1:10 dilution DETOX™ B-SE, designed to deliver the adjuvant to the center of the tumor mass. Mice in treatment Groups 2 and 5 received 50 μL of 1:2.5 dilution following PDT. Mice in treatment Groups 3 and 6 received PDT treatment, but not adjuvant. Mice in Group 7 remained untreated and were monitored for tumor growth only. Mice in treatment Groups 1 and 4 were treated with 50 μL of 1:10 dilution following PDT.

[1] = Optimal PDT (75 J/cm^2), day 3 post-PDT
[2] = Optimal PDT (75 J/cm^2), day 7 post-PDT
[3] = Optimal PDT (75 J/cm^2), day 10 post-PDT
[4] = Optimal PDT (75 J/cm^2), day 14 post-PDT
[5] = Optimal PDT (75 J/cm^2), day 17 post-PDT
[6] = Optimal PDT (75 J/cm^2), day 20 post-PDT
[7] = Sub-optimal PDT (25 J/cm^2), day 3 post-PDT
[8] = Sub-optimal PDT (25 J/cm^2), day 7 post-PDT
[9] = Sub-optimal PDT (25 J/cm^2), day 10 post-PDT
[10] = Sub-optimal PDT (25 J/cm^2), day 14 post-PDT
[11] = Sub-optimal PDT (25 J/cm^2), day 17 post-PDT
[12] = Sub-optimal PDT (25 J/cm^2), day 20 post-PDT

Question: With “benzoporphyrin derivative monoacid ring A [verteporfin]” as the substance, how does the “Survival (tumour less than 1 cm long, not euthanized)” value [1] read?
Answer: The value was 100%.

Question: And the Tumor-free mice [1]?
Answer: The Tumor-free mice was 100%.

Question: What about the “Survival (tumour less than 1 cm long, not euthanized)” value [2] of the same substance?
Answer: The value was 100%.

Question: And the Tumor-free mice [2]?
Answer: The Tumor-free mice was 100%.

Question: And the “Survival (tumour less than 1 cm long, not euthanized)” value [3]?
Answer: The value was 100%.

Question: What about the Tumor-free mice [3] of the same substance?
Answer: Its Tumor-free mice is 100%.

Question: What about the “Survival (tumour less than 1 cm long, not euthanized)” value [4] of the same substance?
Answer: Its value is 100%.

Question: And the Tumor-free mice [4]?
Answer: The Tumor-free mice was 90%.

Question: What about the “Survival (tumour less than 1 cm long, not euthanized)” value [5] of the same substance?
Answer: The value was 100%.

Question: And the Tumor-free mice [5]?
Answer: Its Tumor-free mice is 90%.

Question: What about the “Survival (tumour less than 1 cm long, not euthanized)” value [6] of the same substance?
Answer: The value was 90%.

Question: And the Tumor-free mice [6]?
Answer: Its Tumor-free mice is 90%.

Question: What about the “Survival (tumour less than 1 cm long, not euthanized)” value [7] of the same substance?
Answer: The value was 100%.

Question: What about the Tumor-free mice [7] of the same substance?
Answer: The Tumor-free mice was 100%.

Question: And the “Survival (tumour less than 1 cm long, not euthanized)” value [8]?
Answer: The value was 100%.

Question: And the Tumor-free mice [8]?
Answer: The Tumor-free mice was 90%.

Question: And the “Survival (tumour less than 1 cm long, not euthanized)” value [9]?
Answer: The value was 100%.

Question: What about the Tumor-free mice [9] of the same substance?
Answer: The Tumor-free mice was 80%.

Question: And the “Survival (tumour less than 1 cm long, not euthanized)” value [10]?
Answer: Its value is 100%.

Question: What about the Tumor-free mice [10] of the same substance?
Answer: Its Tumor-free mice is 50%.

Question: What about the “Survival (tumour less than 1 cm long, not euthanized)” value [11] of the same substance?
Answer: Its value is 80%.

Question: What about the Tumor-free mice [11] of the same substance?
Answer: The Tumor-free mice was 70%.

Question: What about the “Survival (tumour less than 1 cm long, not euthanized)” value [12] of the same substance?
Answer: Its value is 70%.

Question: And the Tumor-free mice [12]?
Answer: Its Tumor-free mice is 70%.

Question: And the “animals with tumors that were regressing or had regressed completely by Day 20” value (low dose PDT (25 J/cm^2), adjuvant, where given, high dose (1:2.5))?
Answer: Its value is 2 out of 10 animals.

Reference: patent US7850981B2, “Immuno-adjuvant PDT treatment of metastatic tumors” (QLT, Inc., priority 1999, dated 2010)
